{
  "source": "patent US20090149584A1",
  "about": "“USE OF HEXAHYDROPHTHALIMIDE COMBINATIONS AS SOFTENER” (priority 2006, published 2009)",
  "format_in_all_cases": "physicochemical",
  "key": {"[1]": {"assay": "Solution temperature for PVC in accordance with DIN 53408", "source_text": "A particularly important factor for the use of plasticizers is their gelling performance for PVC. Gelling performance is the capability of a plasticizer to penetrate into the polymeric structure of the PVC and to bring about a plasticizing effect by reducing the level of interaction between the polymer chains. A measure of the gelling performance of a plasticizer is the solution temperature for PVC, determined to DIN 53408. The lower the solution temperature, the better the gelling performance. Better gelling performance or lower solution temperature of the plasticizer means that lower processing temperatures can be selected in the production of flexible PVC. Lower temperatures save energy and time.\n(§1) In accordance with DIN 53408, the solution temperatures of N-2-ethylhexylhexahydrophthalimide were measured for PVC. For comparison, the solution temperatures of the known plasticizers di(2-ethylhexyl) phthalate and diisobutyl phthalate were determined. Vapor pressure measurements were carried out in accordance with annex A4 to European Commission specification 92/69/ECC, OECD test specification 104 and, respectively, EPA test specification OPPTS 830.7950. The following table compares the results."}, "[2]": {"assay": "Vapor pressure measurement (annex A4 to 92/69/ECC, OECD 104, EPA OPPTS 830.7950)", "procedure": "as §1"}, "[3]": {"assay": "Boiling point"}},
  "data": [
    {"molecule": "CC(C)COC(=O)c1ccccc1C(=O)OCC(C)C", "note": "[Diisobutyl phthalate, diisobutyl phthalate]", "values": [
      {"measurement": "Solution temperature for PVC", "setting": "[1]", "result": 99, "unit": "°C"},
      {"measurement": "Vapor pressure", "setting": "[2]; 140° C.", "result": 1.50, "unit": "hPa"},
      {"measurement": "Vapor pressure", "setting": "[2]; 160° C.", "result": 4.20, "unit": "hPa"},
      {"measurement": "Vapor pressure", "setting": "[2]; 180° C.", "result": 10.70, "unit": "hPa"},
      {"measurement": "Vapor pressure", "setting": "[2]; 200° C.", "result": 24.40, "unit": "hPa"},
      {"measurement": "Boiling point", "setting": "[3]", "result": 295, "unit": "°C"}
    ]},
    {"molecule": "N-2-ethylhexylhexahydrophthalimide", "values": [
      {"measurement": "Solution temperature for PVC", "setting": "[1]", "result": 99, "unit": "°C"}
    ]},
    {"molecule": "CCCCC(CC)COC(=O)c1ccccc1C(=O)OCC(CC)CCCC", "note": "(stereo not shown) [Di(2-ethylhexyl) phthalate, di(2-ethylhexyl) phthalate]", "values": [
      {"measurement": "Solution temperature for PVC", "setting": "[1]", "result": 124, "unit": "°C"},
      {"measurement": "Vapor pressure", "setting": "[2]; 140° C.", "result": 0.04, "unit": "hPa"},
      {"measurement": "Vapor pressure", "setting": "[2]; 160° C.", "result": 0.17, "unit": "hPa"},
      {"measurement": "Vapor pressure", "setting": "[2]; 180° C.", "result": 0.58, "unit": "hPa"},
      {"measurement": "Vapor pressure", "setting": "[2]; 200° C.", "result": 1.80, "unit": "hPa"},
      {"measurement": "Boiling point", "setting": "[3]", "result": 384, "unit": "°C"}
    ]}
  ]
}
